US20050281879A1, “Excipients in drug delivery vehicles” (priority 2003, published 2005)
Counter-ions that a name gives are not always drawn.

Experiments:
[1] = cited from earlier work
[2] = Saturation concentration of bupivacaine hydrochloride in de-ionized water; type: physicochemical; settings: DI water
Method: Bupivacaine hydrochloride (Sigma-Aldrich Corporation, St. Louis, Mo.) was dissolved in de-ionized (DI) water at a concentration of 40 mg/ml (saturation). A calculated amount of sodium hydroxide (1 N solution) was added to the solution and the pH of the final mixtures was adjusted to 10 to precipitate the BP base. The precipitated product was filtered, and further washed with DI water for at least three times. The precipitated product was dried at approximately 40° C. in vacuum for 24 hours.

concentration in de-ionized water (saturation) [2] | Structure (SMILES) | reported solubility in water [1]
– | CC(=O)OCC(COC(C)=O)OC(C)=O [triacetin] | 7.17 grams in 100 ml of water
40000 µg/mL | CCCCN1CCCCC1C(=O)Nc1c(C)cccc1C (centres unmarked) [Bupivacaine hydrochloride] | –
